Assays:
[1] = test system: HT-1080; assay: Modulatory profiling: Alamar Blue viability, lethal compound cotreated with death modulator (EC50, AUC); format: cell-based; parameters: AUC, modulator HT.3MA / AUC, modulator HT.ALLN / AUC HT.ATA / AUC HT.ActD / AUC HT.BHA / AUC HT.BHT / AUC HT.BocD / AUC HT.CHX / AUC HT.Co2+ / AUC HT.DPQ / AUC HT.EGTA / AUC HT.Lmim / AUC HT.NAD+ / AUC HT.Nec-1 / AUC HT.SP600125 / AUC HT.TLCK / AUC HT.U0126: unit not given beside the values; conditions: for AUC HT.ATA: HT-1080, modulator ATA; for AUC HT.ActD: HT-1080, modulator ActD; for AUC HT.BHA: HT-1080, modulator BHA; for AUC HT.BHT: HT-1080, modulator BHT; for AUC HT.BocD: HT-1080, modulator BocD; for AUC HT.CHX: HT-1080, modulator CHX; for AUC HT.Co2+: HT-1080, modulator Co2+; for AUC HT.CspA: HT-1080, modulator CspA; for AUC HT.DPQ: HT-1080, modulator DPQ; for AUC HT.EGTA: HT-1080, modulator EGTA; for AUC HT.Gd3+: HT-1080, modulator Gd3+; for AUC HT.LNAME: HT-1080, modulator LNAME; for AUC HT.Lmim: HT-1080, modulator Lmim; for AUC HT.NAD+: HT-1080, modulator NAD+; for AUC HT.NMMA: HT-1080, modulator NMMA; for HT.atoc (AUC) / HT.bCarotene (AUC) / HT.deferox (AUC) / HT.digoxin (AUC) / HT.trolox (AUC) / HT.zVAD (AUC): HT-1080; for HT.atoc (AUC): modulator atoc; for HT.bCarotene (AUC): modulator bCarotene; for HT.deferox (AUC): modulator deferox; for HT.digoxin (AUC): modulator digoxin; for HT.trolox (AUC): modulator trolox; for HT.zVAD (AUC): modulator zVAD; for AUC, modulator HT.3MA / AUC, modulator HT.ALLN: HT-1080 cells, modulatory profile value (AUC); for AUC, modulator HT.3MA: lethal compound cotreated with modulator 3MA; for AUC, modulator HT.ALLN: lethal compound cotreated with modulator ALLN; on AUC HT.BHA: reference of the scale not given here; on AUC HT.EGTA: reference of the scale not given here
[2] = test system: BJeLR; assay: as above; format: cell-based, human; parameters: AUC, modulator BJ.Gd3+ / AUC, modulator BJ.LNAME / AUC, modulator BJ.Lmin / AUC, modulator BJ.3MA / AUC, modulator BJ.ALLN / AUC, modulator BJ.Boc D / AUC, modulator BJ.CHX / AUC, modulator BJ.Co2+ / AUC, modulator BJ.Nec-1 / AUC, modulator BJ.Pepstatin / AUC, modulator BJ.TLCK / AUC, modulator BJ.atoc / AUC, modulator BJ.trolox / AUC, modulator BJ.zVAD: unit not given beside the values; conditions: BJeLR cells, modulatory profile value (AUC); for AUC, modulator BJ.3MA: lethal compound cotreated with modulator 3MA; for AUC, modulator BJ.ALLN: lethal compound cotreated with modulator ALLN; for AUC, modulator BJ.Boc D: lethal compound cotreated with modulator Boc D; for AUC, modulator BJ.CHX: lethal compound cotreated with modulator CHX; for AUC, modulator BJ.Co2+: lethal compound cotreated with modulator Co2+; for AUC, modulator BJ.DPQ: lethal compound cotreated with modulator DPQ; for AUC, modulator BJ.Gd3+: lethal compound cotreated with modulator Gd3+; for AUC, modulator BJ.LNAME: lethal compound cotreated with modulator LNAME; for AUC, modulator BJ.Lmin/NAD+: lethal compound cotreated with modulator Lmin/NAD+; for AUC, modulator BJ.Lmin: lethal compound cotreated with modulator Lmin; for AUC, modulator BJ.NAD+: lethal compound cotreated with modulator NAD+; for AUC, modulator BJ.NMMA: lethal compound cotreated with modulator NMMA; for AUC, modulator BJ.Nec-1: lethal compound cotreated with modulator Nec-1; for AUC, modulator BJ.Pepstatin: lethal compound cotreated with modulator Pepstatin; for AUC, modulator BJ.TLCK: lethal compound cotreated with modulator TLCK; for AUC, modulator BJ.atoc: lethal compound cotreated with modulator atoc; for AUC, modulator BJ.trolox: lethal compound cotreated with modulator trolox; for AUC, modulator BJ.zVAD: lethal compound cotreated with modulator zVAD; on AUC, modulator BJ.3MA: reference of the scale not given here; on AUC, modulator BJ.ALLN: reference of the scale not given here; on AUC, modulator BJ.Boc D: reference of the scale not given here; on AUC, modulator BJ.CHX: reference of the scale not given here; on AUC, modulator BJ.Co2+: reference of the scale not given here; on AUC, modulator BJ.DPQ: reference of the scale not given here; on AUC, modulator BJ.Gd3+: reference of the scale not given here; on AUC, modulator BJ.LNAME: reference of the scale not given here; on AUC, modulator BJ.NAD+: reference of the scale not given here; on AUC, modulator BJ.NMMA: reference of the scale not given here; on AUC, modulator BJ.Nec-1: reference of the scale not given here; on AUC, modulator BJ.Pepstatin: reference of the scale not given here; on AUC, modulator BJ.TLCK: reference of the scale not given here

CC1=CC(C)(C)Nc2ccc(OC(=O)c3cccnc3)cc21 [CIL47]
AUC HT.ATA [1]: 0.07043 | AUC HT.ActD [1]: 0.01588 | AUC HT.BHA [1]: −0.04478 | AUC HT.BHT [1]: −0.1469 | AUC HT.BocD [1]: −0.009617 | AUC HT.CHX [1]: 0.007874 | AUC HT.Co2+ [1]: −0.2381 | AUC HT.CspA [1]: 0.01761 | AUC HT.DPQ [1]: −0.02038 | AUC HT.EGTA [1]: 0.001051 | AUC HT.Gd3+ [1]: −0.02263 | AUC HT.LNAME [1]: −0.01288 | AUC HT.Lmim [1]: −0.04173 | AUC HT.NAD+ [1]: −0.02784 | AUC HT.NMMA [1]: −0.01195 | HT.atoc (AUC) [1]: 0.04666 | HT.bCarotene (AUC) [1]: −0.001832 | HT.deferox (AUC) [1]: 0.01074 | HT.digoxin (AUC) [1]: 0.03489 | HT.trolox (AUC) [1]: −0.03828 | HT.zVAD (AUC) [1]: −0.005894 | AUC, modulator HT.3MA [1]: 0.07294 | AUC, modulator HT.ALLN [1]: 0.2227 | AUC, modulator BJ.3MA [2]: 0.1505 | AUC, modulator BJ.ALLN [2]: −0.02628 | AUC, modulator BJ.Boc D [2]: 0.05397 | AUC, modulator BJ.CHX [2]: −0.0269 | AUC, modulator BJ.Co2+ [2]: −0.1379 | AUC, modulator BJ.DPQ [2]: 0.06122 | AUC, modulator BJ.Gd3+ [2]: −0.02875 | AUC, modulator BJ.LNAME [2]: −0.02479 | AUC, modulator BJ.Lmin/NAD+ [2]: −0.01437 | AUC, modulator BJ.Lmin [2]: −0.01696 | AUC, modulator BJ.NAD+ [2]: −0.06356 | AUC, modulator BJ.NMMA [2]: 0.04023 | AUC, modulator BJ.Nec-1 [2]: −0.02203 | AUC, modulator BJ.Pepstatin [2]: 0.05454 | AUC, modulator BJ.TLCK [2]: −0.03768 | AUC, modulator BJ.atoc [2]: 0.03519 | AUC, modulator BJ.trolox [2]: −0.02806 | AUC, modulator BJ.zVAD [2]: −0.01497

CCCCS(=O)(=O)/C=C\C=C/S(=O)(=O)CCCC [CIL49]
AUC HT.ATA [1]: 0.04768 | AUC HT.ActD [1]: −0.01874 | AUC HT.BHA [1]: −0.01433 | AUC HT.BHT [1]: −0.08297 | AUC HT.BocD [1]: −0.0224 | AUC HT.CHX [1]: −0.009484 | AUC HT.Co2+ [1]: 0.008808 | AUC HT.CspA [1]: 0.04471 | AUC HT.DPQ [1]: −0.02418 | AUC HT.EGTA [1]: 0.02252 | AUC HT.Gd3+ [1]: 0.000907 | AUC HT.LNAME [1]: 0.01289 | AUC HT.Lmim [1]: −0.03685 | AUC HT.NAD+ [1]: −0.01413 | AUC HT.NMMA [1]: 0.000429 | HT.atoc (AUC) [1]: 0.02137 | HT.bCarotene (AUC) [1]: −0.02606 | HT.deferox (AUC) [1]: 0.07453 | HT.digoxin (AUC) [1]: 0.001647 | HT.trolox (AUC) [1]: −0.01523 | HT.zVAD (AUC) [1]: 0.009879 | AUC, modulator HT.3MA [1]: 0.05435 | AUC, modulator HT.ALLN [1]: 0.0662 | AUC, modulator BJ.3MA [2]: 0.04504 | AUC, modulator BJ.ALLN [2]: −0.05864 | AUC, modulator BJ.Boc D [2]: −0.0257 | AUC, modulator BJ.CHX [2]: 0.1692 | AUC, modulator BJ.Co2+ [2]: 0.009716 | AUC, modulator BJ.DPQ [2]: −0.002084 | AUC, modulator BJ.Gd3+ [2]: −0.006048 | AUC, modulator BJ.LNAME [2]: −0.007857 | AUC, modulator BJ.Lmin/NAD+ [2]: 0.07067 | AUC, modulator BJ.Lmin [2]: 0.03689 | AUC, modulator BJ.NAD+ [2]: 0.02344 | AUC, modulator BJ.NMMA [2]: 0.006898 | AUC, modulator BJ.Nec-1 [2]: 0.001972 | AUC, modulator BJ.Pepstatin [2]: 0.02852 | AUC, modulator BJ.TLCK [2]: −0.03549 | AUC, modulator BJ.atoc [2]: −0.008324 | AUC, modulator BJ.trolox [2]: −0.02337 | AUC, modulator BJ.zVAD [2]: −0.001762
